From patent US20240252581A1, “COMPOSITIONS AND METHODS FOR TREATING RESPIRATORY DISTRESS” (S.I.S. SHULOV INNOVATIVE SCIENCE LTD., priority 2021, published 2024)
Where “and” joins values, the source holds several entries; their conditions need not be identical. Identical values can stand only once. Entries after “also recorded” stand apart in the source; their conditions may differ. Square brackets hold non-standard residues; d marks the D form. Peptide text beside a SMILES is read from it. * marks the point of attachment. pGlu = O=C1CC[C@@H](C(=O)O)N1; Octanoyl = CCCCCCCC(=O)*

Tests used:
[1] = system: B cells, T cells, eosinophils, neutrophils, macrophages/dendritic cells in BALF; assay: LPS-induced acute lung injury / ARDS mouse model: BALF differential cell count by FACS; assay type: in vivo, BALB/c mice; parameters: key to Macrophages / B cells / T cells / Eosinophils / Neutrophils: (+) indicates activation; (−) indicates inhibition; details: for B cells (%) / Eosinophils (%) / Macrophages & dendritic cells (%) / Neutrophils (%) / T cells (%) / Eosinophils / Macrophages / B cells / Neutrophils / T cells: BALF
Description: In order to test the efficacy of ZEP3 sodium on lung inflammation, the lipopolysaccharide (LPS)-induced acute lung injury model was used. In particular, LPS was administered intratracheally at doses of 10 or 40 mg/kg body weight (BW) corresponding to 0.2 or 0.8 mg/mouse, respectively.
ZEP3 sodium was administered by inhalation (INH) at doses of 25 or 250 mg/kg BW (0.5 or 5 mg/mouse, respectively), or intratracheally (IT) at doses of 5 or 20 mg/kg BW (0.1 or 0.4 mg/mouse, respectively) 6 hours after LPS administration and its effect was measured 72 hours following administration in the branchial alveolar fluid (BALF) using FACS instrumentation. […]

[2] = Toxicity of ZEP3Na in intratracheal administration, daily for 14 days; assay type: in vivo, rats
Description: The toxicological effect of ZEP3Na administered intratracheally to rats was evaluated. Doses of 0.5, 1.0, and 2.5 mg ZEP3Na dissolved in saline were administered daily into the lungs for a period of 14 days. On day 15, necroscopy and histology of brain, heart, thymus, lungs, spleen, liver, kidneys, and gonads were performed. In addition, blood cell counts and chemistry parameters were counted. Also, the cell distribution (%) of the bronchial alveolar lavage fluid (BALF) was determined by FACS instrumentation for B cells, T cells, neutrophils, and macrophages.

[3] = Group 2: ZEP3Na 0.1 mg IT, no LPS, group mean
[4] = Group 2: ZEP3Na 0.1 mg IT, no LPS, individual mice
[5] = Group 3: ZEP3Na 0.4 mg IT, no LPS, group mean
[6] = Group 3: ZEP3Na 0.4 mg IT, no LPS, individual mice
[7] = Group 4: LPS 0.8 mg + ZEP3Na 0.1 mg IT, group mean
[8] = Group 4: LPS 0.8 mg + ZEP3Na 0.1 mg IT, individual mice
[9] = Group 5: LPS 0.8 mg + ZEP3Na 0.4 mg IT, group mean
[10] = Group 5: LPS 0.8 mg + ZEP3Na 0.4 mg IT, individual mice
[11] = Group 8: LPS 0.2 mg + ZEP3Na 0.1 mg IT, group mean
[12] = Group 8: LPS 0.2 mg + ZEP3Na 0.1 mg IT, individual mice
[13] = Group 9: LPS 0.2 mg + ZEP3Na 0.4 mg IT, group mean
[14] = Group 9: LPS 0.2 mg + ZEP3Na 0.4 mg IT, individual mice
[15] = LPS 0.2 mg + ZEP3Na (IT) 0.1 mg
[16] = LPS 0.2 mg + ZEP3Na (IT) 0.4 mg
[17] = LPS 0.8 mg + ZEP3Na (INH) 0.5 mg
[18] = administered by inhalation following LPS instillation
[19] = administered intratracheally following LPS instillation
[20] = rats, 0.5, 1.0, and 2.5 mg intratracheally daily for 14 days

For `CCCCCCCC(=O)NCCCC[C@H](NC(=O)[C@H](Cc1c[nH]c2ccccc12)NC(=O)[C@H](CC(N)=O)NC(=O)[C@@H]1CCC(=O)N1)C(=O)O` [ZEP3Na, pGlu-Asn-Trp-Lys(Octanoyl)-ONa] ([pGlu]NWK(Octanoyl)-OH), the bronchoalveolar eosinophils percentage ([1]; 0.2 mg LPS, ZEP3Na 0.1 and 0.4 mg, compared to untreated mice that received 0.2 mg LPS) was “significant decrease; also recorded: significantly inhibited”, the “B cells (%)” value [1, 3] was 0.163% and the “Eosinophils (%)” value [1, 3] was 0.412%. The “Macrophages & dendritic cells (%)” value [1, 3] was 66.715%, the “Neutrophils (%)” value [1, 3] was 6.816% and the “T cells (%)” value [1, 3] was 3.078%. The “B cells (%)” value [1, 4] was 0.320% and 0.208% and 0.091% and 0.218% and 0.150% and 0.089% and 0.103% and 0.162% and 0.147% and 0.138%, the “Eosinophils (%)” value [1, 4] was 0.192% and 0.556% and 0.185% and 0.196% and 0.692% and 0.058% and 0.261% and 0.828% and 0.606% and 0.546% and the “Macrophages & dendritic cells (%)” value [1, 4] was 69.267% and 65.626% and 66.568% and 65.527% and 65.957% and 70.380% and 68.287% and 64.068% and 65.131% and 66.345%. For the same compound, the “Neutrophils (%)” value [1, 4] was 8.302% and 7.056% and 4.882% and 7.770% and 5.279% and 3.207% and 3.871% and 12.158% and 8.592% and 7.044%, the “T cells (%)” value [1, 4] was 3.447% and 3.524% and 4.627% and 2.747% and 2.636% and 1.788% and 2.856% and 2.681% and 3.118% and 3.354% and the “B cells (%)” value [1, 5] was 0.176%. The “Eosinophils (%)” value [1, 5] was 0.277%, the “Macrophages & dendritic cells (%)” value [1, 5] was 72.219% and the “Neutrophils (%)” value [1, 5] was 4.248%. For the same compound, the “T cells (%)” value [1, 5] was 1.983%, the “B cells (%)” value [1, 6] was 0.310% and 0.225% and 0.162% and 0.154% and 0.106% and 0.100% and 0.160% and 0.223% and 0.144% and the “Eosinophils (%)” value [1, 6] was 0.151% and 0.400% and 0.136% and 0.176% and 0.138% and 0.390% and 0.192% and 0.540% and 0.366%. For the same compound, the “Macrophages & dendritic cells (%)” value [1, 6] was 72.760% and 67.646% and 73.862% and 72.372% and 77.634% and 73.286% and 72.368% and 67.355% and 72.688%, the “Neutrophils (%)” value [1, 6] was 3.325% and 7.965% and 2.600% and 3.496% and 2.405% and 3.740% and 3.111% and 7.438% and 4.152% and the “T cells (%)” value [1, 6] was 2.519% and 3.322% and 1.247% and 1.675% and 1.513% and 1.348% and 1.817% and 2.755% and 1.654%. For the same compound, the “B cells (%)” value [1, 7] was 0.164%, the “Eosinophils (%)” value [1, 7] was 0.833% and the “Macrophages & dendritic cells (%)” value [1, 7] was 20.180%. For the same compound, the “Neutrophils (%)” value [1, 7] was 59.048%, the “T cells (%)” value [1, 7] was 2.194% and the “B cells (%)” value [1, 8] was 0.118% and 0.102% and 0.048% and 0.030% and 0.045% and 0.489% and 0.052% and 0.572% and 0.017%. The “Eosinophils (%)” value [1, 8] was 0.170% and 0.064% and 1.024% and 0.755% and 0.646% and 3.005% and 0.568% and 0.840% and 0.425%, the “Macrophages & dendritic cells (%)” value [1, 8] was 71.986% and 72.475% and 1.316% and 0.956% and 1.424% and 16.916% and 1.107% and 14.732% and 0.713% and the “Neutrophils (%)” value [1, 8] was 6.007% and 2.454% and 77.259% and 86.115% and 82.630% and 57.391% and 82.523% and 54.903% and 82.147%. For the same compound, the “T cells (%)” value [1, 8] was 0.991% and 1.527% and 0.804% and 0.573% and 0.865% and 5.340% and 0.937% and 8.033% and 0.675%, the “B cells (%)” value [1, 9] was 0.054% and the “Eosinophils (%)” value [1, 9] was 0.475%. The “Macrophages & dendritic cells (%)” value [1, 9] was 12.756%, the “Neutrophils (%)” value [1, 9] was 67.517% and the “T cells (%)” value [1, 9] was 0.895%. The “B cells (%)” value [1, 10] was 0.014% and 0.011% and 0.028% and 0.024% and 0.167% and 0.138% and 0.026% and 0.022%, the “Eosinophils (%)” value [1, 10] was 0.303% and 0.448% and 0.323% and 0.298% and 1.427% and 0.195% and 0.530% and 0.280% and the “Macrophages & dendritic cells (%)” value [1, 10] was 0.470% and 0.297% and 0.271% and 0.442% and 30.597% and 68.407% and 0.798% and 0.764%. The “Neutrophils (%)” value [1, 10] was 77.586% and 88.700% and 84.629% and 80.400% and 39.818% and 3.154% and 84.929% and 80.922%, the “T cells (%)” value [1, 10] was 0.383% and 0.495% and 0.512% and 0.577% and 1.800% and 2.098% and 0.609% and 0.685% and the “B cells (%)” value [1, 11] was 0.097%. The “Eosinophils (%)” value [1, 11] was 0.210%, the “Macrophages & dendritic cells (%)” value [1, 11] was 2.327% and the “Neutrophils (%)” value [1, 11] was 79.428%. For the same compound, the “T cells (%)” value [1, 11] was 1.662%, the “B cells (%)” value [1, 12] was 0.040% and 0.064% and 0.259% and 0.230% and 0.080% and 0.054% and 0.069% and 0.053% and 0.045% and 0.075% and the “Eosinophils (%)” value [1, 12] was 0.247% and 0.204% and 0.223% and 0.251% and 0.143% and 0.176% and 0.180% and 0.265% and 0.225% and 0.192%. The “Macrophages & dendritic cells (%)” value [1, 12] was 2.218% and 1.674% and 5.674% and 2.257% and 0.618% and 1.800% and 1.175% and 5.084% and 1.252% and 1.516%, the “Neutrophils (%)” value [1, 12] was 84.112% and 84.283% and 69.683% and 74.854% and 81.436% and 79.270% and 71.074% and 80.725% and 85.962% and 82.883% and the “T cells (%)” value [1, 12] was 0.940% and 0.742% and 5.066% and 3.187% and 1.024% and 1.045% and 1.327% and 0.892% and 1.131% and 1.271%. For the same compound, the “B cells (%)” value [1, 13] was 0.092%, the “Eosinophils (%)” value [1, 13] was 0.270% and the “Macrophages & dendritic cells (%)” value [1, 13] was 24.471%. For the same compound, the “Neutrophils (%)” value [1, 13] was 55.279%, the “T cells (%)” value [1, 13] was 1.175% and the “B cells (%)” value [1, 14] was 0.045% and 0.054% and 0.029% and 0.019% and 0.100% and 0.153% and 0.286% and 0.103% and 0.037%. The “Eosinophils (%)” value [1, 14] was 0.243% and 0.159% and 0.151% and 0.192% and 0.238% and 0.345% and 0.577% and 0.237% and 0.288%, the “Macrophages & dendritic cells (%)” value [1, 14] was 4.399% and 1.327% and 0.529% and 0.437% and 1.661% and 60.592% and 75.765% and 73.903% and 1.626% and the “Neutrophils (%)” value [1, 14] was 77.353% and 85.551% and 87.483% and 77.212% and 72.881% and 9.005% and 3.108% and 3.716% and 81.207%. For the same compound, the “T cells (%)” value [1, 14] was 1.035% and 0.833% and 0.582% and 0.685% and 1.665% and 2.779% and 0.977% and 1.174% and 0.843%, the Eosinophils [1, 15] was “−” and the Macrophages [1, 15] was “+”. For the same compound, the Eosinophils [1, 16] was “−”, the Macrophages [1, 16] was “+” and the B cells [1, 17] was “+”. The Eosinophils [1, 17] was “−”, the Macrophages [1, 17] was “+” and the Neutrophils [1, 17] was “−”. For the same compound, the T cells [1, 17] was “−”, the B cells ([1]; LPS 0.8 mg + ZEP3Na (INH) 5 mg) was “+” and the Eosinophils ([1]; LPS 0.8 mg + ZEP3Na (INH) 5 mg) was “−”. The Macrophages ([1]; LPS 0.8 mg + ZEP3Na (INH) 5 mg) was “+”, the Neutrophils ([1]; LPS 0.8 mg + ZEP3Na (INH) 5 mg) was “−” and the T cells ([1]; LPS 0.8 mg + ZEP3Na (INH) 5 mg) was “−”. For the same compound, the “levels of T cells, eosinophils, neutrophils” value [1, 18] was “significantly inhibited the expression and reduced the levels”, the “levels of macrophages and B cells” value [1, 18] was “increased the levels” and the levels of eosinophils [1, 19] was “significantly inhibited the expression and reduced the levels”. For the same compound, the levels of macrophages [1, 19] was “increased the levels”, the “blood counts and chemistry” value [2, 20] was “comparable to the reference items” and the body weight [2, 20] was “remained similar to that of the control group”. The “mortality or abnormal signs of behavior” value [2, 20] was “No mortality or abnormal signs of behavior”, the “distribution of B cells, T cells, neutrophils, and macrophages in BALF” value ([2]; rats, 0.5, 1.0, and 2.5 mg intratracheally daily for 14 days, FACS) was “No changes” and the “necroscopy and histology of the inspected organs” value ([2]; rats, day 15, brain, heart, thymus, lungs, spleen, liver, kidneys, gonads) was “no pathological changes”. The “adverse effects in all parameters tested” value ([2]; rats, intratracheal, up to 2.5 mg daily for 14 days) was “did not result in any detectable adverse effects”.
